Reference: ChEMBL document CHEMBL6127092, “Comprehensive structural investigation of a potent and selective CXCR4 antagonist via crosslink modification” (Eur J Med Chem, 2024)
Active and inactive are the calls of the source. No cut-off for these calls is given here. Where a SMILES comes first, the peptide text is derived from it. Bridges are numbered along the chain shown (N, C = ends). Triazole bridges read from a SMILES are 1,4-linked. [ ]: non-standard residue; d: D form. 2Nal = N[C@@H](Cc1ccc2ccccc2c1)C(=O)O; Dap(N3) = [N-]=[N+]=NC[C@H](N)C(=O)O; Pra = C#CC[C@H](N)C(=O)O

Experiments:
[1] = biological target: T1, C-X-C chemokine receptor type 4 (Homo sapiens, UniProt P61073); test: Antagonist activity at GFP-tagged CXCR4 (unknown origin) transfected in CHO cells assessed as inhibition of CXCL12-induced cytoplasmic translocation at 0.1 to 1 uM incubated with compound for 45 mins with subsequent CXCL12 addition and measured at 30 to 90 mins by DAPI staining based fluorescence microscopic analysis; type: cell-based; conditions: filed as antagonist, dose 0.1-1 µM, time 30-90 min
[2] = biological target: T1, C-X-C chemokine receptor type 4; test: Agonist activity at GFP-tagged CXCR4 (unknown origin) transfected in CHO cells assessed as induction of internalization at 0.1 to 1 uM incubated with compound for 45 mins and measured at 30 to 90 mins by DAPI staining based fluorescence microscopic analysis; type: functional, cell-based; conditions: dose 0.1-1 µM, time 30-90 min
[3] = biological target: T1, C-X-C chemokine receptor type 4; test: Agonist activity at CXCR4 (unknown origin) transfected in human CCRF-CEM cells assessed as induction of internalization at 0.1 uM incubated for 45 mins by flow cytometric analysis; type: functional, cell-based
[4] = biological target: T1, C-X-C chemokine receptor type 4; test: Antagonist activity at CXCR4 (unknown origin) transfected in human CCRF-CEM cells assessed as inhibition of CXCL12-induced internalization at 0.1 to 1 uM preincubated for 45 mins followed by CXCL12 addition and measured after 30 mins by flow cytometric analysis; type: cell-based; conditions: filed as antagonist, dose 0.1-1 µM, time 75.0 min
CCRF-CEM [5] = test: Inhibition of CXCL12-mediated cell migration in human CCRF-CEM cells expressing CXCR4 at 0.01 to 10 uM incubated for 6 hrs by DAPI staining based fluorescence microscopic analysis; type: functional; conditions: dose 0.01-10 µM
[6] = biological target: Atypical chemokine receptor 3 (Homo sapiens) (UniProt P25106); test: Binding affinity to CXCR7 (unknown origin) overexpressed in human MCF7 cells upto 10 uM preincubated for 45 mins followed by anti-CXCR7-APC antibody addition and measured after 30 mins by flow cytometric analysis; type: cell-based; conditions: time 75.0 min
[7] = biological target: T1, C-X-C chemokine receptor type 4; test: Binding affinity to CXCR4 (unknown origin) overexpressed in human CCRF-CEM cells assessed as inhibition of ant-CXCR4 PE-antibody binding to receptor preincubated with compound for 45 mins followed by anti-CXCR4 PE-antibody addition and measured after 30 mins by flow cytometry based competitive binding assay; type: cell-based
[8] = biological target: T1, C-X-C chemokine receptor type 4; test: Displacement of [125I]-CXCL12 from CXCR4 (unknown origin) overexpressed in human CCRF-CEM cells incubated for 1 hrs by gamma-counter; type: cell-based
[9] = biological target: T1, C-X-C chemokine receptor type 4; test: Agonist activity at CXCR4 (unknown origin); type: functional
[10] = Stability of compound in PBS at pH 7.4 assessed as parent compound remaining at 10 uM measured immediately in presence of GSH by RP-HPLC analysis; type: physicochemical; conditions: PBS with GSH, read-out: Stability
[11] = Stability of compound in PBS at pH 7.4 assessed as parent compound remaining at 10 uM measured after 1 hrs in presence of GSH by RP-HPLC analysis; type: physicochemical; conditions: PBS with GSH, read-out: Stability
[12] = Stability of compound in PBS at pH 7.4 assessed as parent compound remaining at 10 uM measured after 2 hrs in presence of GSH by RP-HPLC analysis; type: physicochemical; conditions: PBS with GSH, read-out: Stability
[13] = Stability of compound in PBS at pH 7.4 assessed as parent compound remaining at 10 uM measured after 4 hrs in presence of GSH by RP-HPLC analysis; type: physicochemical; conditions: PBS with GSH, read-out: Stability
[14] = Stability of compound in PBS at pH 7.4 assessed as parent compound remaining at 10 uM measured after 8 hrs in presence of GSH by RP-HPLC analysis; type: physicochemical; conditions: PBS with GSH, read-out: Stability
CCRF-CEM [15] = test: Inhibition of CXCL12-mediated cell migration in human CCRF-CEM cells expressing CXCR4 at 0.01 uM incubated for 6 hrs by DAPI staining based fluorescence microscopic analysis; type: functional
CCRF-CEM [16] = test: Inhibition of CXCL12-mediated cell migration in human CCRF-CEM cells expressing CXCR4 incubated for 6 hrs by DAPI staining based fluorescence microscopic analysis; type: functional; conditions: dose 0.01-10 µM

T1 sequence (P61073 whole entry): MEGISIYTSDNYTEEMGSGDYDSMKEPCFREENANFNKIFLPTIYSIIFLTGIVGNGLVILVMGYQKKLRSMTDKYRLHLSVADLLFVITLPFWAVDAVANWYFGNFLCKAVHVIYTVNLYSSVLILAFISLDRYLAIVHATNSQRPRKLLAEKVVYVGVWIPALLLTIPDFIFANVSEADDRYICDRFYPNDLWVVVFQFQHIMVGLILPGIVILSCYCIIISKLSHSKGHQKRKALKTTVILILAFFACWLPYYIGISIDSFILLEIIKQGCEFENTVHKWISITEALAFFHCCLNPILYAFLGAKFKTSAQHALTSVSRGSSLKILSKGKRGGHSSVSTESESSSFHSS
Atypical chemokine receptor 3 (Homo sapiens), sequence (P25106 whole entry): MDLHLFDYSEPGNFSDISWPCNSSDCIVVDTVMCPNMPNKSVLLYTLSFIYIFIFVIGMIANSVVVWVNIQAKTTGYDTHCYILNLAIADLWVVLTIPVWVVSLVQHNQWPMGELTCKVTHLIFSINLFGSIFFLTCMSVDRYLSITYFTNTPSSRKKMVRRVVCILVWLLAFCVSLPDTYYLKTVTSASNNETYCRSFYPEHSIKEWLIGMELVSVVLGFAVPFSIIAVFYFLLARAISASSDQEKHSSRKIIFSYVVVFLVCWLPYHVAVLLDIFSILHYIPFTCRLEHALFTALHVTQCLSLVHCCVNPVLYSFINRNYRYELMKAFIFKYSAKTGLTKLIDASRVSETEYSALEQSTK

## CC(=O)N[C@@H](CCCNC(=N)N)C(=O)N[C@@H](C)C(=O)N[C@H]1CSSC(C)(C)[C@H](C(=O)O)NC(=O)[C@H](Cc2c[nH]cn2)NC(=O)[C@H](Cc2ccc3ccccc3c2)NC(=O)[C@H](CCCNC(=N)N)NC1=O
[1]
  Activity: Active
[2]
  Activity: inactive
[3]
  Activity: inactive
[4]
  Activity: Active
CCRF-CEM [5]
  inhibition: Active
[6]
  Activity: inactive

## CC(=O)N[C@@H](CCCNC(=N)N)C(=O)N[C@@H](C)C(=O)N[C@@H]1CCC(=O)NCCCC[C@@H](C(=O)O)NC(=O)[C@H](Cc2c[nH]cn2)NC(=O)[C@H](Cc2ccc3ccccc3c2)NC(=O)[C@H](CCCNC(=N)N)NC1=O
[7]
  IC50: > 10 nM

## CC(=O)N[C@@H](CCCNC(=N)N)C(=O)N[C@@H](C)C(=O)N[C@@H]1CC(=O)NCCCC[C@@H](C(=O)O)NC(=O)[C@H](Cc2c[nH]cn2)NC(=O)[C@H](Cc2ccc3ccccc3c2)NC(=O)[C@H](CCCNC(=N)N)NC1=O
[7]
  IC50: 2570 nM

## CC(=O)N[C@@H](CCCNC(=N)N)C(=O)N[C@@H](C)C(=O)N[C@H]1CCC(=O)NCCCC[C@@H](C(=O)O)NC(=O)[C@H](Cc2c[nH]cn2)NC(=O)[C@H](Cc2ccc3ccccc3c2)NC(=O)[C@H](CCCNC(=N)N)NC1=O
[7]
  IC50: > 10 nM

## CC(=O)N[C@@H](CCCNC(=N)N)C(=O)N[C@@H](C)C(=O)N[C@@H]1CCC(=O)NC[C@@H](C(=O)O)NC(=O)[C@H](Cc2c[nH]cn2)NC(=O)[C@H](Cc2ccc3ccccc3c2)NC(=O)[C@H](CCCNC(=N)N)NC1=O
[7]
  IC50: 89 nM

## CC(=O)N[C@@H](CCCNC(=N)N)C(=O)N[C@@H](C)C(=O)N[C@H]1Cn2cc(nn2)C[C@@H](C(=O)O)NC(=O)[C@H](Cc2c[nH]cn2)NC(=O)[C@H](Cc2ccc3ccccc3c2)NC(=O)[C@H](CCCNC(=N)N)NC1=O (Ac-RA[Dap(N3)]R[2Nal]H[Pra]-OH; triazole 3-7)
[8]
  IC50: 36 nM

## CC(=O)N[C@@H](CCCNC(=N)N)C(=O)N[C@@H](C)C(=O)N[C@H]1CC(=O)NC[C@@H](C(=O)O)NC(=O)[C@H](Cc2c[nH]cn2)NC(=O)[C@H](Cc2ccc3ccccc3c2)NC(=O)[C@H](CCCNC(=N)N)NC1=O
[7]
  IC50: > 10 nM

## CC(=O)N[C@@H](CCCNC(=N)N)C(=O)N[C@@H](C)C(=O)N[C@H]1Cc2cnnn2CC[C@@H](C(=O)O)NC(=O)[C@H](Cc2c[nH]cn2)NC(=O)[C@H](Cc2ccc3ccccc3c2)NC(=O)[C@H](CCCNC(=N)N)NC1=O
[9]
  IC50: 31 nM

## CC(=O)N[C@@H](CCCNC(=N)N)C(=O)N[C@@H](C)C(=O)N[C@H]1CNC(=O)CC[C@@H](C(=O)O)NC(=O)[C@H](Cc2c[nH]cn2)NC(=O)[C@H](Cc2ccc3ccccc3c2)NC(=O)[C@H](CCCNC(=N)N)NC1=O
[10]
  remaining at 0 h, 10 µM: 100%
[11]
  remaining at 1 h, 10 µM: 100%
[12]
  remaining at 2 h, 10 µM: 100%
[13]
  remaining at 4 h, 10 µM: 100%
[14]
  remaining at 8 h, 10 µM: 100%
[1]
  Activity: Active
[2]
  Activity: inactive
[3]
  Activity: inactive
[4]
  Activity: Active
CCRF-CEM [15]
  inhibition: Active
CCRF-CEM [16]
  inhibition: Dose-Dependent Effect
[6]
  Activity: inactive
[7]
  IC50: 7.8 nM
[8]
  IC50: 3.9 nM

## CC(=O)N[C@@H](CCCNC(=N)N)C(=O)N[C@@H](C)C(=O)N[C@@H]1CC(=O)NCCC[C@@H](C(=O)O)NC(=O)[C@H](Cc2c[nH]cn2)NC(=O)[C@H](Cc2ccc3ccccc3c2)NC(=O)[C@H](CCCNC(=N)N)NC1=O
[7]
  IC50: 2020 nM

## CC(=O)N[C@@H](CCCNC(=N)N)C(=O)N[C@@H](C)C(=O)N[C@@H]1CCC(=O)NCCC[C@@H](C(=O)O)NC(=O)[C@H](Cc2c[nH]cn2)NC(=O)[C@H](Cc2ccc3ccccc3c2)NC(=O)[C@H](CCCNC(=N)N)NC1=O
[7]
  IC50: > 10 nM

## CC(=O)N[C@@H](CCCNC(=N)N)C(=O)N[C@@H](C)C(=O)N[C@@H]1CNC(=O)CC[C@@H](C(=O)O)NC(=O)[C@H](Cc2c[nH]cn2)NC(=O)[C@H](Cc2ccc3ccccc3c2)NC(=O)[C@H](CCCNC(=N)N)NC1=O
[7]
  IC50: 810 nM

## CC(=O)N[C@@H](CCCNC(=N)N)C(=O)N[C@@H](C)C(=O)N[C@H]1CNC(=O)C[C@@H](C(=O)O)NC(=O)[C@H](Cc2c[nH]cn2)NC(=O)[C@H](Cc2ccc3ccccc3c2)NC(=O)[C@H](CCCNC(=N)N)NC1=O
[7]
  IC50: 143 nM

## CC(=O)N[C@@H](CCCNC(=N)N)C(=O)N[C@@H](C)C(=O)N[C@@H]1CSSC(C)(C)[C@@H](C(=O)O)NC(=O)[C@H](Cc2cnc[nH]2)NC(=O)[C@H](Cc2ccc3ccccc3c2)NC(=O)[C@H](CCCNC(=N)N)NC1=O
[10]
  remaining at 0 h, 10 µM: 100%
[11]
  remaining at 1 h, 10 µM: 88%
[12]
  remaining at 2 h, 10 µM: 79%
[13]
  remaining at 4 h, 10 µM: 65%
[14]
  remaining at 8 h, 10 µM: 52%
[7]
  IC50: 1.5 nM
[8]
  IC50: 15.2 nM

## CC(=O)N[C@@H](CCCNC(=N)N)C(=O)N[C@@H](C)C(=O)N[C@@H]1CC(=O)NCC[C@@H](C(=O)O)NC(=O)[C@H](Cc2c[nH]cn2)NC(=O)[C@H](Cc2ccc3ccccc3c2)NC(=O)[C@H](CCCNC(=N)N)NC1=O
[7]
  IC50: 710 nM

## CC(=O)N[C@@H](CCCNC(=N)N)C(=O)N[C@@H](C)C(=O)N[C@H]1CC(=O)NCCCC[C@@H](C(=O)O)NC(=O)[C@H](Cc2c[nH]cn2)NC(=O)[C@H](Cc2ccc3ccccc3c2)NC(=O)[C@H](CCCNC(=N)N)NC1=O
[7]
  IC50: > 10 nM

## CC(=O)N[C@@H](CCCNC(=N)N)C(=O)N[C@@H](C)C(=O)N[C@H]1CC(=O)NCCC[C@@H](C(=O)O)NC(=O)[C@H](Cc2c[nH]cn2)NC(=O)[C@H](Cc2ccc3ccccc3c2)NC(=O)[C@H](CCCNC(=N)N)NC1=O
[7]
  IC50: > 10 nM

## CC(=O)N[C@@H](CCCNC(=N)N)C(=O)N[C@@H](C)C(=O)N[C@@H]1CC(=O)NC[C@@H](C(=O)O)NC(=O)[C@H](Cc2c[nH]cn2)NC(=O)[C@H](Cc2ccc3ccccc3c2)NC(=O)[C@H](CCCNC(=N)N)NC1=O
[7]
  IC50: 3150 nM

## CC(=O)N[C@@H](CCCNC(=N)N)C(=O)N[C@@H](C)C(=O)N[C@H]1CCC(=O)NCC[C@@H](C(=O)O)NC(=O)[C@H](Cc2c[nH]cn2)NC(=O)[C@H](Cc2ccc3ccccc3c2)NC(=O)[C@H](CCCNC(=N)N)NC1=O
[7]
  IC50: > 10 nM

## CC(=O)N[C@@H](CCCNC(=N)N)C(=O)N[C@@H](C)C(=O)N[C@H]1CCC(=O)NC[C@@H](C(=O)O)NC(=O)[C@H](Cc2c[nH]cn2)NC(=O)[C@H](Cc2ccc3ccccc3c2)NC(=O)[C@H](CCCNC(=N)N)NC1=O
[7]
  IC50: 510 nM

## CC(=O)N[C@@H](CCCNC(=N)N)C(=O)N[C@@H](C)C(=O)N[C@H]1CC(=O)NCC[C@@H](C(=O)O)NC(=O)[C@H](Cc2c[nH]cn2)NC(=O)[C@H](Cc2ccc3ccccc3c2)NC(=O)[C@H](CCCNC(=N)N)NC1=O
[7]
  IC50: 756 nM

## CC(=O)N[C@@H](CCCNC(=N)N)C(=O)N[C@@H](C)C(=O)N[C@@H]1CNC(=O)C[C@@H](C(=O)O)NC(=O)[C@H](Cc2c[nH]cn2)NC(=O)[C@H](Cc2ccc3ccccc3c2)NC(=O)[C@H](CCCNC(=N)N)NC1=O
[7]
  IC50: 3600 nM

## CC(=O)N[C@@H](CCCNC(=N)N)C(=O)N[C@@H](C)C(=O)N[C@H]1CCC(=O)NCCC[C@@H](C(=O)O)NC(=O)[C@H](Cc2c[nH]cn2)NC(=O)[C@H](Cc2ccc3ccccc3c2)NC(=O)[C@H](CCCNC(=N)N)NC1=O
[7]
  IC50: > 10 nM

## CC(=O)N[C@@H](CCCNC(=N)N)C(=O)N[C@@H](C)C(=O)N[C@@H]1CCC(=O)NCC[C@@H](C(=O)O)NC(=O)[C@H](Cc2c[nH]cn2)NC(=O)[C@H](Cc2ccc3ccccc3c2)NC(=O)[C@H](CCCNC(=N)N)NC1=O
[7]
  IC50: 238 nM
